Data on 38 molecules can be found in patent US7026339B2, “Inhibitors of HCV NS5B polymerase” (priority 2003, dated 2006).

The experiment concerns HuH-7 replicon cells 5–15 and 9–13 (HCV replication). In words: Inhibition of viral replication in HuH-7 replicon cells (HCV RNA / GAPDH RNA by multiplex RT-PCR). The format is cell-based. Conditions: Hepatitis C virus, 72 h; inhibiting 50% of replication; HuH-7 replicon cells, 3 days; read-out: IC50. In short, it runs like this:
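Replicon cells seeded at 7×10^3 cells/well, grown 24 h, then exposed 3 days at 37 °C to compound at final 100 μM–1 μM (1% DMSO). Multiplex TaqMan RT-PCR on total RNA quantified HCV 5′-UTR and GAPDH RNA against a standard curve; HCV/GAPDH ratio reported as percent of untreated control.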
(In antiviral work, replicon cells carry a viral genome segment that copies itself.)

Take `Cc1ccccc1S(=O)(=O)Oc1ccccc1/C=N/NC(=O)Cc1ccccc1` [Compound 110, 2-{(E)-[2-(2-phenylacetyl)hydrazono]methyl}phenyl 2-methylbenzenesulfonate]: the IC50 was > 50 µM. As to `Cc1cccc(S(=O)(=O)Oc2ccccc2/C=N/NC(=O)Cc2ccccc2)c1` [Compound 111, 2-{(E)-[2-(2-phenylacetyl)hydrazono]methyl}phenyl 3-methylbenzenesulfonate], the IC50 is > 50 µM. For `O=C(Cc1ccccc1)N/N=C/c1ccccc1OS(=O)(=O)c1ccccc1F` [Compound 112, 2-{(E)-[2-(2-phenylacetyl)hydrazono]methyl}phenyl 2-fluorobenzenesulfonate], the IC50 was > 50 µM. Turning to `O=C(Cc1ccccc1)N/N=C/c1ccccc1OS(=O)(=O)c1cccc(F)c1` [Compound 113, 2-{(E)-[2-(2-phenylacetyl)hydrazono]methyl}phenyl 3-fluorobenzenesulfonate], the IC50 is > 50 µM. In the case of `N#Cc1cccc(S(=O)(=O)Oc2ccccc2/C=N/NC(=O)Cc2ccccc2)c1` [Compound 114, 2-{(E)-[2-(2-phenylacetyl)hydrazono]methyl}phenyl 3-cyanobenzenesulfonate], the IC50 was > 50 µM. With `N#Cc1ccc(S(=O)(=O)Oc2ccccc2/C=N/NC(=O)Cc2ccccc2)cc1` [Compound 115, 2-{(E)-[2-(2-phenylacetyl)hydrazono]methyl}phenyl 4-cyanobenzenesulfonate] the figure was 5 to 50 µM. With `O=C(Cc1ccccc1)N/N=C/c1ccccc1OS(=O)(=O)c1cccc(Cl)c1` [Compound 116, 2-{(E)-[2-(2-phenylacetyl)hydrazono]methyl}phenyl 3-chlorobenzenesulfonate], the concentration for half-maximal inhibition (IC50) was > 50 µM. With `O=C(Cc1ccccc1)N/N=C/c1ccccc1OS(=O)(=O)c1ccc(Cl)cc1` [Compound 117, 2-{(E)-[2-(2-phenylacetyl)hydrazono]methyl}phenyl 4-chlorobenzenesulfonate] the figure was < 5 µM; with `O=C(Cc1ccccc1)N/N=C/c1ccccc1OS(=O)(=O)c1ccc(F)c(F)c1` [Compound 118, 2-{(E)-[2-(2-phenylacetyl)hydrazono]methyl}phenyl3,4-difluorobenzenesulfonate], 5 to 50 µM; with `O=C(Cc1ccccc1)N/N=C/c1ccccc1OS(=O)(=O)c1ccc2ccccc2c1` [Compound 119, 2-{(E)-[2-(2-phenylacetyl)hydrazono]methyl}phenylnaphthalene-2-sulfonate], < 5 µM. Regarding `O=C(Cc1ccccc1)N/N=C/c1ccccc1OS(=O)(=O)c1ccc(F)c(Cl)c1` [Compound 120, 2-{(E)-[2-(2-phenylacetyl)hydrazono]methyl}phenyl 3-chloro-4-fluorobenzenesulfonate], the IC50 lay within 5 to 50 µM. Consider `CC(C)(C)c1ccc(S(=O)(=O)Oc2ccccc2/C=N/NC(=O)Cc2ccccc2)cc1` [Compound 121, 2-{(E)-[2-(2-phenylacetyl)hydrazono]methyl}phenyl 4-tert-butylbenzenesulfonate], for which the IC50 is < 5 µM.

Take `O=C(Cc1ccccc1)N/N=C/c1ccccc1OS(=O)(=O)c1cccc(C(F)(F)F)c1` [Compound 122, 2-{(E)-[2-(2-phenylacetyl)hydrazono]methyl}phenyl 3-(trifluoromethyl)benzenesulfonate]: the IC50 lay within 5 to 50 µM.

Take `O=C(Cc1ccccc1)N/N=C/c1ccccc1OS(=O)(=O)c1ccc(C(F)(F)F)cc1` [Compound 123, 2-{(E)-[2-(2-phenylacetyl)hydrazono]methyl}phenyl 4-(trifluoromethyl)benzenesulfonate]: the IC50 was < 5 µM. With `O=C(Cc1ccccc1)N/N=C/c1ccccc1OS(=O)(=O)c1ccc(Cl)cc1Cl` [Compound 124, 2-{(E)-[2-(2-phenylacetyl)hydrazono]methyl}phenyl2,4-dichlorobenzenesulfonate] the figure was < 5 µM; with `O=C(Cc1ccccc1)N/N=C/c1ccccc1OS(=O)(=O)c1ccc(Cl)c(Cl)c1` [Compound 125, 2-{(E)-[2-(2-phenylacetyl)hydrazono]methyl}phenyl3,4-dichlorobenzenesulfonate], < 5 µM; with `O=C(Cc1ccccc1)N/N=C/c1ccccc1OS(=O)(=O)c1cc(Cl)cc(Cl)c1` [Compound 126, 2-{(E)-[2-(2-phenylacetyl)hydrazono]methyl}phenyl3,5-dichlorobenzenesulfonate], 5 to 50 µM. `O=C(Cc1ccccc1)N/N=C/c1ccccc1OS(=O)(=O)c1cccc(Br)c1` [Compound 127, 2-{(E)-[2-(2-phenylacetyl)hydrazono]methyl}phenyl 3-bromobenzenesulfonate]: the 50% inhibitory concentration (IC50) lay within 5 to 50 µM.

With `O=C(Cc1ccccc1)N/N=C/c1ccccc1OS(=O)(=O)c1ccc(Br)cc1` [Compound 128, 2-{(E)-[2-(2-phenylacetyl)hydrazono]methyl}phenyl 4-bromobenzenesulfonate], the IC50 is < 5 µM. With `O=C(Cc1ccccc1)N/N=C/c1ccccc1OS(=O)(=O)c1ccc(F)cc1` [Compound 129, 2-{(E)-[2-(2-phenylacetyl)hydrazono]methyl}phenyl 4-fluorobenzenesulfonate], the IC50 lay within 5 to 50 µM. With `Cc1ccc(C)c(S(=O)(=O)Oc2ccccc2/C=N/NC(=O)Cc2ccccc2)c1` [Compound 130, 2-{(E)-[2-(2-phenylacetyl)hydrazono]methyl}phenyl2,5-dimethylbenzenesulfonate] the figure was > 50 µM; with `COc1ccc(S(=O)(=O)Oc2ccccc2/C=N/NC(=O)Cc2ccccc2)cc1` [Compound 131, 2-{(E)-[2-(2-phenylacetyl)hydrazono]methyl}phenyl 4-methoxybenzenesulfonate], < 5 µM; with `O=C(Cc1ccccc1)N/N=C/c1ccccc1OS(=O)(=O)c1ccccc1Cl` [Compound 132, 2-{(E)-[2-(2-phenylacetyl)hydrazono]methyl}phenyl 2-chlorobenzenesulfonate], > 50 µM. Next, `O=C(Cc1ccccc1)N/N=C/c1ccccc1OS(=O)(=O)c1ccc(F)cc1F` [Compound 133, 2-{(E)-[2-(2-phenylacetyl)hydrazono]methyl}phenyl2,4-difluorobenzenesulfonate]: > 50 µM; `CCCc1ccc(S(=O)(=O)Oc2ccccc2/C=N/NC(=O)Cc2ccccc2)cc1` [Compound 134, 2-{(E)-[2-(2-phenylacetyl)hydrazono]methyl}phenyl 4-propylbenzenesulfonate]: < 5 µM. Next, `CC(C)c1ccc(S(=O)(=O)Oc2ccccc2/C=N/NC(=O)Cc2ccccc2)cc1` [Compound 135, 2-{(E)-[2-(2-phenylacetyl)hydrazono]methyl}phenyl 4-isopropylbenzenesulfonate]: < 5 µM. With `O=C(Cc1ccccc1)N/N=C/c1ccccc1OS(=O)(=O)c1cccc2ccccc12` [Compound 136, 2-{(E)-[2-(2-phenylacetyl)hydrazono]methyl}phenylnaphthalene-1-sulfonate], the IC50 was > 50 µM. With `O=C(Cc1ccccc1)N/N=C/c1ccccc1OS(=O)(=O)c1ccc(F)cc1Cl` [Compound 137, 2-{(E)-[2-(2-phenylacetyl)hydrazono]methyl}phenyl 2-chloro-4-fluorobenzenesulfonate] the figure was 5 to 50 µM; with `COc1ccc(OC)c(S(=O)(=O)Oc2ccccc2/C=N/NC(=O)Cc2ccccc2)c1` [Compound 138, 2-{(E)-[2-(2-phenylacetyl)hydrazono]methyl}phenyl2,5-dimethoxybenzenesulfonate], > 50 µM; with `O=C(Cc1ccccc1)N/N=C/c1ccccc1OS(=O)(=O)c1cc(Cl)ccc1Cl` [Compound 139, 2-{(E)-[2-(2-phenylacetyl)hydrazono]methyl}phenyl2,5-dichlorobenzenesulfonate], > 50 µM. With `O=C(Cc1ccccc1)N/N=C/c1ccccc1OS(=O)(=O)c1ccccc1Br` [Compound 140, 2-{(E)-[2-(2-phenylacetyl)hydrazono]methyl}phenyl 2-bromobenzenesulfonate] the figure was > 50 µM. With `O=C(Cc1ccccc1)N/N=C/c1ccccc1OS(=O)(=O)c1ccccc1OC(F)(F)F` [Compound 141, 2-{(E)-[2-(2-phenylacetyl)hydrazono]methyl}phenyl 2-(trifluoromethoxy)benzenesulfonate] the figure was > 50 µM; with `O=C(Cc1ccccc1)N/N=C/c1ccccc1OS(=O)(=O)c1ccc(OC(F)(F)F)cc1` [Compound 142, 2-{(E)-[2-(2-phenylacetyl)hydrazono]methyl}phenyl 4-(trifluoromethoxy)benzenesulfonate], < 5 µM. With `COc1cccc(S(=O)(=O)Oc2ccccc2/C=N/NC(=O)Cc2ccccc2)c1` [Compound 143, 2-{(E)-[2-(2-phenylacetyl)hydrazono]methyl}phenyl 3-methoxybenzenesulfonate], the IC50 fell in the range of 5 to 50 µM. With `O=C(Cc1ccccc1)N/N=C/c1ccccc1OS(=O)(=O)c1ccc(-c2ccccc2)cc1` [Compound 144, 2-{(E)-[2-(2-phenylacetyl)hydrazono]methyl}phenyl1,1′-biphenyl-4-sulfonate] the figure was > 50 µM. Next, `COc1cccc(CC(=O)N/N=C/c2ccccc2OS(=O)(=O)c2ccc(C)cc2)c1` [Compound 145, 2-((E)-{2-[2-(3-methoxyphenyl)acetyl]hydrazono}methyl)-phenyl 4-methylbenzenesulfonate]: < 5 µM. With `COc1cccc(CC(=O)N/N=C/c2ccccc2OS(=O)(=O)c2ccc(C(F)(F)F)cc2)c1` [Compound 146, 2-((E)-{2-[2-(3-methoxyphenyl)acetyl]hydrazono}methyl)-phenyl 4-(trifluoromethyl)benzenesulfonate], the IC50 is < 5 µM. Next, `Cc1ccc(S(=O)(=O)Oc2ccccc2/C=N/NC(=O)Cc2cccc(Cl)c2)cc1` [Compound 147, 2-((E)-{2-[2-(3-chlorophenyl)acetyl]hydrazono}methyl)-phenyl 4-methylbenzenesulfonate]: < 5 µM.

The IC50 is the concentration at which inhibition is half-maximal.
